What all share (type): cell-based
The subject of assay [1] is Raji cells. Kind of assay: Cell death-inducing effect of rituximab in Raji cells, trypan blue staining. The note with it: cell viability. The text has this:
(§1) Referring to FIG. 7, the horizontal axis is the rituximab concentration (μg/mL) and the vertical axis is the cell viability (%). […] However, the cell viability was clearly higher in RR1 cells, confirming that they are resistant to rituximab.

Assay [2] deals with KMS-28BM cells. As to the kind of experiment: Cell death in KMS-28BM cells by each compound in combination with rituximab, trypan blue staining. The note with it: 10 days with 0.1 M9, 0.01 μM M14/M15/M16, 0.5 μM M18/M19, then human serum and rituximab. The procedure:
As a control, compounds untreated KMS-28BM cells were seeded in 75 cm^2 flasks and incubated for 10 days at 37° C. and 5% CO2. KMS-28BM cells were seeded into 75 cm^2 flasks and pre-cultured for 24 h. After incubation, KMS-28BM cells were treated with […], 0.01 μM M14, 0.01 μM M15, 0.01 μM M16, 0.5 μM M18, and 0.5 μM M19 at final concentrations, and incubated for 10 days at 37° C. and 5% CO2. This added amount is a concentration lower than the IC50 of the above compounds for KMS-28BM cells.
After 10 days of incubation, cells were seeded into 96-well plates, human serum and 10 µg/mL rituximab were added, and cell viability was determined by the trypan blue staining.
For controls, only 0.5% DMSO (diluted in PBS) used to dissolve the compounds was added.

The test system of assay [3] is RR1 cells. As to the kind of experiment: Cell death-inducing effect of rituximab in RR1 cells, trypan blue staining.
Text: Raji cells, a burkitt lymphoma cell line, were modified to be rituximab-resistant and named RR1 cells.
as §1

The results in this text go back to patent US20260200903A1, “PHARMACEUTICAL COMPOSITION FOR AMELIORATING MALIGNANT DISEASES” (KINKI UNIVERSITY, priority 2020, published 2026).

“rituximab: an anti-CD20 monoclonal antibody”: the “IC50 of Raji cells to rituximab” value in assay [1] amounted to 0.121 µg/mL. For the same substance, in assay [2], the “cell death induction compared to control” value is recorded as “did not induce cell death”. For the same substance, the “IC50 of RR1 cells to rituximab” value in assay [3] (RR1 cells, cell viability) is 98 µg/mL. In addition, the “resistance of RR1 cells to rituximab relative to Raji cells” value in assay [3] (ratio of IC50 RR1 / Raji) is “approximately 809 times”.
